# Earlier results, collected in US7767227B2, “Galenical form for oral administration with prolonged release of molsidomine” (Therabel Pharmaceuticals Limited, priority 2000, dated 2010).
# Where two headings read alike, the source gives them in different places.
structure (smiles),measurement,setting,value
"CCOC(=O)[N-]c1cn(N2CCOCC2)n[o+]1 [Molsidomine, N-(ethoxycarbonyl)-3-(4-morpholinyl)sydnone imine]",period of action,4 mg dose,4 to 5 h
same,period of action,8 mg dose,10 to 12 h
